The values below come from publication PMC7457137, “An Integrated Pharmacokinetic Study of an Acanthopanax senticosus Extract Preparation by Combination of Virtual Screening, Systems Pharmacology, and Multi-Component Pharmacokinetics in Rats” (Frontiers in Pharmacology, 2020).

Read-outs that look alike come from different tables or passages of the source.

Data set [1] can be described thus: Multi-component PK in rats after i.v. administration of ASEP. Type of data set: in vivo, Sprague-Dawley rats. Conditions: for ingredient concentration in rat plasma: PK time points 2.5, 5, 10, 15 and 20 min after single i.v. 3.52 ml/kg of 5 times concentrated ASEP, preliminary examination; for AUC(0-inf): read-out: AUC0-∞; for clearance: read-out: Cl (converted); for MRT last: read-out: MRT0-t; for MRT inf: read-out: MRT0-∞; for half-life: read-out: t 1/2 (converted). As to the method:
The animal experiments were conducted in line with the Guide for the Care and Use of Laboratory Animals (published by the USA National Institutes of Health, NIH Publication no. 85-23, revised 1996), which were approved by the Animal Care and Use Committee of the College of Animal Science (College of Bee Science), Fujian Agriculture and Forestry University (Approval Number: […]2019004). […] All rats were acclimated to the facilities and environment for 7 days before the experiments. […] The gradient elution was carried out by the mobile phase water with 0.1% formic acid (A) and methanol (B). […] The column temperature and flow rate were at 35 °C and 0.5 ml/min, resepectively. 5 μl sample solution was injected for the HPLC-MS analysis. The electrospray ionization (ESI) source conditions were as follows: block heating temperature was kept at 400 °C; desolvation line temperature was set at 250 °C; dry gas (nitrogen) flow rate was kept at 15 L/min; and auxiliary gas (nitrogen) flow rate was 3 L/min. […] The plasma samples were separated by centrifugation, followed by storing at -20 °C before analysis. […] A DAS 3.0 software (Chinese Pharmacologic Society, Beijing, China) was used to calculate the noncompartmental PK parameters. All the results were presented as mean ± SD, and statistics analysis was done with a single-tailed Student's t test in the work.

A short description of data set [2]: Stability of the compounds in rat plasma (LC-MS validation). Type of data set: in vitro ADME. The text has this:
According to the “Guidelines for non-clinical pharmacokinetics of drugs” issued by Centre for Drug Evaluation, National Medical Products Administration, China ([Guidelines for non-clinical pharmacokinetics of drugs, 2014]), the LC-MS method was validated by linearity, limits of detection (LOD), limits of quantification (LOQ), precision, accuracy, extraction recovery, matrix effect and stability of the 6 compounds in rat plasma. In brief, blank rat plasma was obtained from the other six rats. The standard mixture solution containing the 6 compounds (with the concentration of 1 mg/ml for each) was diluted with […] to prepare a series of working solution containing the 6 compounds (concentration level: 20, 50, 100, 250, 500 ng/ml and 1, 2.5, 5, 10, 25, 50, 100, 125 150, 200 μg/ml) and IS (2.5μg/ml). For calibration curve, 10 μl of the series of working solution containing the IS (2.5μg/ml) was added into 100 μl of blank plasma. Finally, 15 data points (2, 5, 10, 25, 50, 100, 250, 500 ng/ml and 1, 2.5, 5, 10, 12.5 15, 20 μg/ml) were used in the calibration curve linearity. Calibration curves were plotted by weighted linear regression of the peak area ratio of analyte to the IS against the related nominal concentration of the analyte. LOD and LOQ were defined as the detectable concentration at which the ratio of signal to noise was about 3 and 10, respectively ([Huang et al., 2019]). […] The extraction recovery and matrix effect were also assessed at the above-mentioned three concentration levels for the 6 ingredients in the spiked plasma samples ([Huang et al., 2019]). Stability was examined under the condition of setting un-treated plasma samples at ambient temperature for 6 h, and extracted plasma samples in auto-sampler for 10 h, as well as setting plasma samples for three freeze-thaw cycles and at −80°C for 15 days ([Guidelines for non-clinical pharmacokinetics of drugs, 2014]).

The test system of the next data set is zebrafish model. More on the design: method as in Lin et al., 2017; Hu et al., 2018. To be noted: ref Lin et al., 2017, Hu et al., 2018; cited from earlier work.
Data set [3] concerns human umbilical vein endothelial cells. On the set-up: method as in Lin et al., 2017; Hu et al., 2018. To be noted: ref Lin et al., 2017, Hu et al., 2018; cited from earlier work.
For data set [4] the following is noted: rat, in vivo; cited from earlier work.
Where [5] appears, read: rat plasma, High group: single i.v. 3.52 ml/kg of 5 times concentrated ASEP, mean ± SD, n=3.
Setting [6] is: rat plasma, Low group: single i.v. 1.76 ml/kg of 5 times concentrated ASEP, mean ± SD, n=3.
Where [7] appears, read: extracted plasma samples, 10h in auto-sampler vials, high spiked level (HQC, 8000-16000 ng/mL).
[8] abbreviates: extracted plasma samples, 10h in auto-sampler vials, low spiked level (LQC, 5-30 ng/mL).
Setting [9] is: extracted plasma samples, 10h in auto-sampler vials, middle spiked level (MQC, 400-1600 ng/mL).
Setting [10] is: rat plasma, 6h at room temperature, high spiked level (HQC, 8000-16000 ng/mL).
Where [11] appears, read: rat plasma, 6h at room temperature, low spiked level (LQC, 5-30 ng/mL).
Where [12] appears, read: rat plasma, 6h at room temperature, middle spiked level (MQC, 400-1600 ng/mL).
Where [13] appears, read: rat plasma, freeze-thaw stability (three cycles), high spiked level (HQC, 8000-16000 ng/mL).
Setting [14] is: rat plasma, freeze-thaw stability (three cycles), low spiked level (LQC, 5-30 ng/mL).
The mark [15] stands for this setting: rat plasma, freeze-thaw stability (three cycles), middle spiked level (MQC, 400-1600 ng/mL).
Where [16] appears, read: rat plasma, long-term stability (-80℃,15 days), high spiked level (HQC, 8000-16000 ng/mL).
Setting [17] is: rat plasma, long-term stability (-80℃,15 days), low spiked level (LQC, 5-30 ng/mL).
Where [18] appears, read: rat plasma, long-term stability (-80℃,15 days), middle spiked level (MQC, 400-1600 ng/mL).
The mark [19] stands for this setting: male, Sprague-Dawley, rat, plasma, iv, 1.76 ml/kg, rat plasma, Low group: single i.v. 1.76 ml/kg of 5 times concentrated ASEP, mean ± SD, n=3.
[20] abbreviates: male, Sprague-Dawley, rat, plasma, iv, 3.52 ml/kg, rat plasma, High group: single i.v. 3.52 ml/kg of 5 times concentrated ASEP, mean ± SD, n=3.

Take `O=C(/C=C/c1ccc(O)c(O)c1)OC1[C@H](O)CC(O)(C(=O)O)C[C@H]1O` (some centres unmarked) [4-CQA]: in data set [1], the “ingredient concentration in rat plasma” value is over 0.5 ng/mL. In addition, the “AUC0-∞” value is 3,161.48 ± 69.18 h·ng/ml in data set [1] (setting [5]) and 1,750.59 ± 64.24 h·ng/ml in data set [1] (setting [6]). The values for the AUC(0-t) in data set [1] (setting [5]) and in data set [1] (setting [6]) were 3,156.93 ± 68.74 h·ng/ml and 1,747.89 ± 64.52 h·ng/ml, respectively. Also, the values for the Cl in data set [1] (setting [5]) and in data set [1] (setting [6]) were 0.80 ± 0.02 L/h and 0.73 ± 0.03 L/h, respectively. Also, the “MRT0-∞” value in data set [1] (setting [5]) was 25.8 ± 0.6 min; in data set [1] (setting [6]) it was 22.2 ± 0 min. The distribution volume (Vd) – broadly, the apparent volume that relates the amount in the body to the concentration in plasma or blood – in data set [1] (setting [5]) stood at 0.76 ± 0.02 L; in data set [1] (setting [6]), 0.98 ± 0.11 L. Besides, the entries for the “t 1/2” value in data set [1] (setting [5]) and in data set [1] (setting [6]) were 39.6 ± 0.6 min and 55.8 ± 4.8 min, respectively. Further, the MRT0-t in data set [1] (setting [6]) amounted to 21.6 ± 0 min. Also, the “Stability, RE” value in data set [2] (setting [7]) is recorded as -6.85%; in data set [2] (setting [8]), -16.89%; in data set [2] (setting [9]), 14.39%; in data set [2] (setting [10]), -7.63%; in data set [2] (setting [11]), -6.42%; in data set [2] (setting [12]), 9.60%. Further, the “Stability, RE” value was -3.17% in data set [2] (setting [13]); 19.90% in data set [2] (setting [14]); -0.64% in data set [2] (setting [15]); -1.64% in data set [2] (setting [16]); 17.58% in data set [2] (setting [17]); 14.43% in data set [2] (setting [18]).
For the compound `O=C(O)c1ccc(O)c(O)c1` [PCA, protocatechuic acid], the “ingredient concentration in rat plasma” value in data set [1] is over 0.5 ng/mL. Also, the AUC(0-t) in data set [1] (male, Sprague-Dawley, rat, plasma, iv, 1.76 ml/kg, rat plasma, Low group: single i.v. 1.76 ml/kg of 5 times concentrated ASEP, mean ± SD, n=3, read-out: AUC0-t) is 202 ± 4.82 ng·h/mL; in data set [1] (male, Sprague-Dawley, rat, plasma, iv, 3.52 ml/kg, rat plasma, High group: single i.v. 3.52 ml/kg of 5 times concentrated ASEP, mean ± SD, n=3, read-out: AUC0-t) it was 308 ± 14.2 ng·h/mL. For the same compound, the AUC(0-inf) turned out to be 204 ± 5.08 ng·h/mL in data set [1] (setting [19]) and 310 ± 14.1 ng·h/mL in data set [1] (setting [20]). Moreover, the clearance is 96 mL/min in data set [1] (setting [19]) and 126 mL/min in data set [1] (setting [20]). In addition, the MRT last in data set [1] (setting [19]) was determined as 15 ± 0.6 min; in data set [1] (setting [20]) it was 18 ± 0.6 min. For the same compound, the MRT inf turned out to be 16.8 ± 1.2 min in data set [1] (setting [19]) and 19.2 ± 0.6 min in data set [1] (setting [20]). Moreover, the Vd in data set [1] (male, Sprague-Dawley, rat, plasma, iv, 1.76 ml/kg, rat plasma, Low group: single i.v. 1.76 ml/kg of 5 times concentrated ASEP, mean ± SD, n=3, read-out: Vd) is 2.91 ± 0.07 L; in data set [1] (male, Sprague-Dawley, rat, plasma, iv, 3.52 ml/kg, rat plasma, High group: single i.v. 3.52 ml/kg of 5 times concentrated ASEP, mean ± SD, n=3, read-out: Vd), 4.39 ± 0.22 L. The results for the half-life in data set [1] (setting [19]) and in data set [1] (setting [20]) were 21 ± 0.6 min and 24 min, respectively. For the same compound, the “effect on VEGF-induced angiogenesis” value (in the data set on zebrafish model; in data set [3]) was “significant inhibitory effects” in each case. Besides, the “Stability, RE” value was -5.63% in data set [2] (setting [7]); -2.62% in data set [2] (setting [8]); -6.89% in data set [2] (setting [9]); 0.16% in data set [2] (setting [10]); -6.60% in data set [2] (setting [11]); -4.01% in data set [2] (setting [12]). The “Stability, RE” value in data set [2] (setting [13]) is -0.14%; in data set [2] (setting [14]), -0.31%; in data set [2] (setting [15]), 0.85%; in data set [2] (setting [16]) it was -10.60%; in data set [2] (setting [17]) it was -9.72%; in data set [2] (setting [18]), -3.16%.
In the case of `COc1cc2ccc(=O)oc2c(OC)c1O` [isofraxidin], the “elimination in cerebral ischemia-reperfusion rats compared with the normal group” value in data set [4] is recorded as “changed”.
